Test results reported in patent US20230247994A1, “HETEROCYCLENE DERIVATIVES AS PEST CONTROL AGENTS” (Bayer Aktiengesellschaft, priority 2020, published 2023).

Columns and labels:
Type in all cases: in vivo
[1] = system: Nezara viridula; test: Nezara viridula spray test (barley plants); conditions: 96 h, application rate 500 g/ha, larvae, after 4 days, 100% = all shield bugs killed, read-out: efficacy in %
Excerpt: (§1) Nezara viridula—Spray Test Solvent: 78.0 parts by weight of acetone • • 1.5 parts by weight of dimethylformamide Emulsifier: alkylaryl polyglycol ether An appropriate active ingredient formulation is produced by dissolving 1 part by weight of active ingredient with the stated parts by weight of solvent and making the solution up to the desired concentration with water containing an emulsifier concentration of 1000 ppm. Further test concentrations are produced by diluting the formulation with emulsifier-containing water. Barley plants (Hordeum vulgare) are sprayed with an active ingredient formulation of the desired concentration and are infected with larvae of the Southern green shield bug (Nezara viridula). After 4 days, efficacy in % is determined. 100% means that all of the shield bugs have been killed; 0% means that none of the shield bugs have been killed.

[2] = system: Meloidogyne incognita; test: Meloidogyne incognita test (lettuce, gall formation); conditions: application rate 20 ppm, after 14 days, 100% = no galls found
Excerpt: Meloidogyne Incognita Test Solvent: 125.0 parts by weight of acetone An appropriate active ingredient formulation is produced by mixing 1 part by weight of active ingredient with the stated amount of solvent and diluting the concentrate to the desired concentration with water. Vessels are filled with sand, active ingredient solution, an egg/larvae suspension of the southern root-knot nematode (Meloidogyne incognita) and lettuce seeds. The lettuce seeds germinate and the plants develop. The galls develop on the roots. After 14 days, the nematicidal efficacy in % is determined by the formation of galls. 100% means that no galls were found; 0% means that the number of galls on the treated plants corresponds to the untreated control.

[3] = system: Myzus persicae; test: Myzus persicae spray test (Chinese cabbage leaf disks); conditions: application rate 100 g/ha, after 5 days, 100% = all aphids killed
Excerpt: as §1, with “Myzus persicae—Spray” for “Nezara viridula—Spray”, “78” for “78.0”, “Leaf disks of Chinese cabbage (Brassica pekinensis) infested by all stages of the green peach aphid (Myzus persicae)” for “Barley plants (Hordeum vulgare)”, “concentration.” for “concentration and are infected with larvae of the Southern green shield bug (Nezara viridula).”, “5” for “4”, “aphids” for “shield bugs”

[4] = system: Diabrotica balteata; test: Diabrotica balteata spray test (germinated wheat grains); conditions: 168 h, application rate 100 g/ha (=32 μg/cavity), after 7 days, beetle larvae on wheat, 100% = all wheat plants grown as in untreated, uninfected control, read-out: efficacy in %
Excerpt: Diabrotica Balteata—Spray Test Solvent: 78 parts by weight of acetone • • 1.5 parts by weight of dimethylformamide Emulsifier: alkylaryl polyglycol ether An appropriate active ingredient formulation is produced by dissolving 1 part by weight of active ingredient with the stated parts by weight of solvent and making the solution up to the desired concentration with water containing an emulsifier concentration of 1000 ppm. Further test concentrations are produced by diluting the formulation with emulsifier-containing water. Pre-swollen wheat grains (Triticum aestivum) are incubated in a multiwell plate filled with agar and a little water for one day (5 seed grains per cavity). The germinated wheat grains are sprayed with an active ingredient formulation of the desired concentration. Subsequently, each cavity is infected with 10-20 beetle larvae of Diabrotica balteata. After 7 days, efficacy in % is determined. 100% means that all wheat plants have grown as in the untreated, uninfected control; 0% means that no wheat plant has grown.

[5] = system: Spodoptera frugiperda; test: Spodoptera frugiperda spray test (maize leaf disks); conditions: foliar, 168 h, caterpillars, after 7 days, 100% = all caterpillars killed, read-out: efficacy in %; for pest or weed control at 100 g/ha: application rate 100 g/ha
Excerpt: Spodoptera frugiuerda—Spray Test
Solvent: 78.0 parts by weight of acetone • • 1.5 parts by weight of dimethylformamide
Emulsifier: alkylaryl polyglycol ether
An appropriate active ingredient formulation is produced by dissolving 1 part by weight of active ingredient with the stated parts by weight of solvent and making the solution up to the desired concentration with water containing an emulsifier concentration of 1000 ppm. Further test concentrations are produced by diluting the formulation with emulsifier-containing water.
Leaf disks of maize (Zea mays) are sprayed with an active ingredient formulation of the desired concentration and, after drying, populated with caterpillars of the fall armyworm (Spodopterafrugiperda).
After 7 days, efficacy in % is determined. 100% means that all of the caterpillars have been killed; 0% means that none of the caterpillars have been killed.

[6] = system: Myzus persicae; test: Myzus persicae spray test (bell pepper plants); conditions: application rate 20 ppm, after 6 days, 100% = all aphids killed
Excerpt: Myzus persicae—spray test Solvent: 14 parts by weight of dimethylformamide Emulsifier: alkylaryl polyglycol ether An appropriate active ingredient formulation is produced by dissolving 1 part by weight of active ingredient with the stated parts by weight of solvent and making the solution up to the desired concentration with water containing an emulsifier concentration of 1000 ppm. Further test concentrations are produced by diluting the formulation with emulsifier-containing water. If the addition of ammonium salts or/and penetration enhancers is required, these are each added in a concentration of 1000 ppm to the formulation solution. Bell pepper plants (Capsicum annuum) severely infested with the green peach aphid (Myzus persicae) are treated by spraying with the active ingredient formulation in the desired concentration. After 6 days, the kill in % is determined. 100% means that all of the aphids have been killed; 0% means that none of the aphids have been killed.

[7] = system: Nilaparvata lugens; test: Nilaparvata lugens test (rice plants); conditions: application rate 500 g/ha, spray, after 4 days, 100% = all planthoppers killed
Excerpt: Nilaparvata lugens Test Solvent: 78.0 parts by weight of acetone • • 1.5 parts by weight of dimethylformamide Emulsifier: alkylaryl polyglycol ether An appropriate active ingredient formulation is produced by dissolving 1 part by weight of active ingredient with the stated parts by weight of solvent and making the solution up to the desired concentration with water containing an emulsifier concentration of 1000 ppm. Further test concentrations are produced by diluting the formulation with emulsifier-containing water. Rice plants (Oryza sativa) are sprayed with the active ingredient formulation of the desired concentration and then infected with the brown planthopper (Nilaparvata lugens). After 4 days, efficacy in % is determined. 100% means that all of the planthoppers have been killed; 0% means that none of the planthoppers have been killed.

[8] = system: Myzus persicae; test: Myzus persicae oral test; conditions: application rate 20 ppm, after 5 days, 100% = all aphids killed
Experimental: Myzus persicae—Oral Test Solvent: 100 parts by weight of acetone An appropriate active ingredient formulation is produced by dissolving 1 part by weight of active ingredient with the specified parts by weight of solvent and making the solution up to the desired concentration with water. 50 μl of the active ingredient formulation is transferred into microtiter plates and made up to a final volume of 200 μl with 150 μl of IPL41 insect medium (33%+15% sugar). Subsequently, the plates are sealed with parafilm, which a mixed population of green peach aphids (Myzus persicae) within a second microtiter plate is able to puncture and imbibe the solution. After 5 days, efficacy in % is determined. 100% means that all of the aphids have been killed; 0% means that none of the aphids have been killed.

With `CCS(=N)(=O)c1c(-c2nc3cc4c(cc3n2C)OC(F)(F)C(F)(F)O4)nc(-c2ccc(F)cc2)n1C` (centres unmarked) [Example I-38] the pest or weed control at 500 g/ha [1] was 90%, the “nematicidal efficacy in % (formation of galls)” value (“nematicidal efficacy in %” below) [2] was 100% and the efficacy in % [3] was 90%. It also gave a pest or weed control at 100 g/ha [4] of 100% and a pest or weed control at 100 g/ha [5] of 100%.
`CCS(=O)(=O)c1c(-c2nc3cc4c(cc3n2C)OC(F)(F)C(F)(F)O4)nc(C2CC2)n1C` [Example I-9, 2-[2-Cyclopropyl-5-(ethylsulfonyl)-1-methyl-1H-imidazol-4-yl]-6,6,7,7-tetrafluoro-1-methyl-6,7-dihydro-1H-[1,4]dioxino[2,3-f]benzimidazole] was tested, and the pest or weed control at 100 g/ha [4] was 100%, the “kill in % (efficacy)” value [6] was 99% and the pest or weed control at 100 g/ha [5] was 83%.
`CCS(=O)(=O)c1c(-c2nc3cc4c(cc3n2C)OC(F)(F)C(F)(F)O4)nc(-c2cccc(Cl)n2)n1C` [Example I-21, 2-[2-(6-Chloropyridin-2-yl)-5-(ethylsulfonyl)-1-methyl-1H-imidazol-4-yl]-6,6,7,7-tetrafluoro-1-methyl-6,7-dihydro-1H-[1,4]dioxino[2,3-f]benzimidazole] showed a pest or weed control at 500 g/ha [1] of 100%, an efficacy in % [7] of 90% and a pest or weed control at 100 g/ha [4] of 100%. For the same compound, the pest or weed control at 100 g/ha [5] was 100%.
In the case of `CCS(=O)(=O)c1c(-c2nc3cc4c(cc3n2C)OC(F)(F)C(F)(F)O4)nc(-c2cccc(C3(C#N)CC3)n2)n1C` [Example I-28, 1-{6-[5-(Ethylsulfonyl)-1-methyl-4-(6,6,7,7-tetrafluoro-1-methyl-6,7-dihydro-1H-[1,4]dioxino[2,3-f]benzimidazol-2-yl)-1H-imidazol-2-yl]pyridin-2-yl}cyclopropanecarbonitrile], the pest or weed control at 500 g/ha [1] is reported as 100%, the efficacy in % [7] is reported as 100% and the pest or weed control at 100 g/ha [5] is reported as 100%.
`CCS(=O)(=O)c1c(-c2nc3cc4c(cc3n2C)OC(F)(F)C(F)(F)O4)nc(-c2ccccc2)n1C` [Example I-16, 2-[5-(Ethylsulfonyl)-1-methyl-2-phenyl-1H-imidazol-4-yl]-6,6,7,7-tetrafluoro-1-methyl-6,7-dihydro-1H-[1,4]dioxino[2,3-f]benzimidazole] was tested, and the pest or weed control at 500 g/ha [1] was 100%, the efficacy in % [3] was 90% and the pest or weed control at 100 g/ha [4] was 100%. It also gave a pest or weed control at 100 g/ha [5] of 100%.
With `CCS(=N)(=O)c1c(-c2nc3cc4c(cc3n2C)OC(F)(F)C(F)(F)O4)nc(-c2ccc(Cl)cc2)n1C` (racemic) [Example I-34, rac-2-[2-(4-Chlorophenyl)-5-(ethylsulfonimidoyl)-1-methyl-1H-imidazol-4-yl]-6,6,7,7-tetrafluoro-1-methyl-6,7-dihydro-1H-[1,4]dioxino[2,3-f]benzimidazole] the “nematicidal efficacy in %” value [2] was 90%, the efficacy in % [3] was 90% and the pest or weed control at 100 g/ha [4] was 100%. The pest or weed control at 100 g/ha [5] was 100%.
In the case of `CCS(=O)(=O)c1c(-c2nc3cc4c(cc3n2C)OC(F)(F)C(F)(F)O4)nc(-c2ccc(C3(C#N)CC3)cc2)n1C` [Example I-6, 1-{4-[5-(Ethylsulfonyl)-1-methyl-4-(6,6,7,7-tetrafluoro-1-methyl-6,7-dihydro-1H-[1,4]dioxino[2,3-f]benzimidazol-2-yl)-1H-imidazol-2-yl]phenyl}cyclopropanecarbonitrile], the pest or weed control at 500 g/ha [1] is reported as 100%, the “nematicidal efficacy in %” value [2] is reported as 100% and the pest or weed control at 100 g/ha [4] is reported as 100%. It also gave a pest or weed control at 100 g/ha [5] of 100%.
In the case of `CCS(=O)(=O)c1c(-c2nc3cc4c(cc3n2C)OC(F)(F)C(F)(F)O4)nc(-c2ccc(Cl)cc2)n1C` [Example I-4, 2-[2-(4-Chlorophenyl)-5-(ethylsulfonyl)-1-methyl-1H-imidazol-4-yl]-6,6,7,7-tetrafluoro-1-methyl-6,7-dihydro-1H-[1,4]dioxino[2,3-f]benzimidazole], the “nematicidal efficacy in %” value [2] is reported as 90%, the pest or weed control at 100 g/ha [4] is reported as 80% and the pest or weed control at 100 g/ha [5] is reported as 100%.
In the case of `CCS(=O)(=O)c1c(-c2nc3cc4c(cc3[nH]2)OC(F)(F)C(F)(F)O4)nc(C2CC2)n1C` [Example I-8, 2-[2-Cyclopropyl-5-(ethylsulfonyl)-1-methyl-1H-imidazol-4-yl]-6,6,7,7-tetrafluoro-6,7-dihydro-1H-[1,4]dioxino[2,3-f]benzimidazole], the “nematicidal efficacy in %” value [2] is reported as 90%, the pest or weed control at 100 g/ha [4] is reported as 100% and the efficacy in % [8] is reported as 100%. The pest or weed control at 500 g/ha ([5]; application rate 500 g/ha) was 100%.
`CCS(=O)(=O)c1c(-c2nc3cc4c(cc3n2C)OC(F)(F)C(F)(F)O4)nc(-c2cccc(Br)n2)n1C` [Example I-30, 2-[2-(6-Bromopyridin-2-yl)-5-(ethylsulfonyl)-1-methyl-1H-imidazol-4-yl]-6,6,7,7-tetrafluoro-1-methyl-6,7-dihydro-1H-[1,4]dioxino[2,3-f]benzimidazole] showed a pest or weed control at 500 g/ha [1] of 100%, an efficacy in % [7] of 100% and a pest or weed control at 100 g/ha [4] of 100%. For the same compound, the pest or weed control at 100 g/ha [5] was 100%.
In the case of `CCS(=N)(=O)c1c(-c2nc3cc4c(cc3n2C)OC(F)(F)C(F)(F)O4)nc(-c2ccc(C(F)(F)F)cc2)n1C` (centres unmarked) [Example I-37], the “nematicidal efficacy in %” value [2] is reported as 90%, the pest or weed control at 100 g/ha [4] is reported as 80% and the pest or weed control at 100 g/ha [5] is reported as 100%.
